Some test systems named below: A549; CAKI-1; CCRF-CEM; DU-145; EKVX; HOP-92; HT-29; IGROV-1; MDA-MB-231; OVCAR-3; OVCAR-4; PC-3; RPMI-8226; SF-295; SW-620; T47D; TK-10; UACC-257; SR.
What all share (test): NCI tumour cell line growth inhibition, 48 h

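Protocol summary: plate cells (96-well), add compound at 5 concentrations, incubate 48 h, interpolate endpoints linearly. Abbreviation: GI50, concentration required for 50% inhibition of growth.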 Activity calls are given as the source filed them. Cut-off read from the data, not from the text of the source: active = GI50 up to about 1.1 µM and inactive = higher. Some results are limits rather than exact numbers.

These results are taken from ChEMBL document CHEMBL1201862, “PubChem BioAssay data set” (2004).

For `O=C(/C=C/C(Cl)(Cl)Cl)Nc1ccc(Cl)cc1`, the GI50 with A549 was 3.99 µM (inactive); in the experiment with CAKI-1, 0.8 µM (active); in the experiment with CCRF-CEM, 1.56 µM (inactive); in the experiment on DU-145 it was 16.9 µM (inactive); with EKVX it was 5.02 µM (inactive); in the experiment on HOP-92, 2.12 µM (inactive). The GI50 was 1.94 µM (inactive) in the experiment on HT-29; 0.452 µM (active) in the experiment with IGROV-1; 2.49 µM (inactive) in the experiment on MDA-MB-231; 6.89 µM (inactive) in the experiment on OVCAR-3; 1.82 µM (inactive) with OVCAR-4; 12.5 µM (inactive) in the experiment with PC-3. The GI50 in the experiment on RPMI-8226 is 2.09 µM (inactive); in the experiment with SF-295, 12.4 µM (inactive); with SW-620 it was 3.38 µM (inactive); in the experiment on T47D it was 2.15 µM (inactive); in the experiment with TK-10, 2.35 µM (inactive); in the experiment on UACC-257, 18.3 µM (inactive).

In the case of `O=[N+]([O-])C(C(Cl)=C(Cl)Cl)=C(n1cncn1)n1cncn1`, the GI50 was > 22.1 µM (inactive) in the experiment with A549; 5.47 µM (inactive) in the experiment on CAKI-1; 3.37 µM (inactive) in the experiment with CCRF-CEM; 16.5 µM (inactive) with DU-145; 24.3 µM (inactive) in the experiment on EKVX; 19 µM (inactive) with HT-29. In addition, the GI50 in the experiment with IGROV-1 is 16.6 µM (inactive); with MDA-MB-231, 19.5 µM (inactive); in the experiment on OVCAR-3, 18.2 µM (inactive); with OVCAR-4 it was 24.4 µM (inactive); in the experiment with PC-3, 32.1 µM (inactive); in the experiment with RPMI-8226 it was 17.1 µM (inactive). For the same compound, the GI50 in the experiment with SF-295 was > 86.7 µM (inactive); in the experiment on SR it was 31.2 µM (inactive); in the experiment with SW-620, 18.8 µM (inactive); with T47D, 19 µM (inactive); with TK-10 it was 25.7 µM (inactive); with UACC-257 it was 31.3 µM (inactive).

For the compound `CN(C)c1ccc(/C(Br)=C2\OC(=O)c3ccccc32)cc1`, the GI50 is > 100 µM (inactive) in the experiment with A549; > 100 µM (inactive) in the experiment with CAKI-1; 51.4 µM (inactive) in the experiment on CCRF-CEM; > 100 µM (inactive) in the experiment with DU-145; > 100 µM (inactive) with EKVX; 42.3 µM (inactive) in the experiment on HT-29. For the same compound, the GI50 with IGROV-1 is > 100 µM (inactive); with MDA-MB-231, > 100 µM (inactive); with OVCAR-4, > 100 µM (inactive); in the experiment with PC-3, > 100 µM (inactive); with RPMI-8226, 24.3 µM (inactive); with SF-295, 76.2 µM (inactive). For the same compound, the GI50 was 34.8 µM (inactive) with SR; 93.5 µM (inactive) in the experiment on SW-620; 11.3 µM (inactive) in the experiment with T47D; > 100 µM (inactive) in the experiment on TK-10; > 100 µM (inactive) in the experiment with UACC-257.

Turning to `CC(C)/C=N\N1C(N)=C(C#N)C(C#N)(C#N)C1C(C)C` (centres undefined), the GI50 was 60.4 µM (inactive) in the experiment on A549; 85.1 µM (inactive) in the experiment with CAKI-1; 36.2 µM (inactive) in the experiment on CCRF-CEM; 40 µM (inactive) with DU-145; > 100 µM (inactive) in the experiment with EKVX; 27.5 µM (inactive) in the experiment on HT-29. For the same compound, the GI50 is 39.9 µM (inactive) with IGROV-1; 29.9 µM (inactive) in the experiment on MDA-MB-231; 48.2 µM (inactive) in the experiment with OVCAR-3; 52.1 µM (inactive) in the experiment on OVCAR-4; 55.3 µM (inactive) in the experiment with PC-3; 37.8 µM (inactive) with RPMI-8226. Also, the GI50 was > 100 µM (inactive) in the experiment on SF-295; 29.3 µM (inactive) in the experiment with SR; 34.6 µM (inactive) in the experiment on SW-620; 48.9 µM (inactive) with T47D; > 100 µM (inactive) in the experiment with TK-10; 47.5 µM (inactive) in the experiment with UACC-257.

For `O=C1C=C(N2CCN(c3ncccn3)CC2)C(=O)c2c(O)ccc(O)c21`, the GI50 in the experiment with A549, in the experiment with CAKI-1, with CCRF-CEM, in the experiment with DU-145, with EKVX and with HOP-92 was > 100 µM (inactive) in each case. Besides, the GI50 in the experiment with HT-29, with IGROV-1, in the experiment on MDA-MB-231, with OVCAR-3, in the experiment with OVCAR-4 and in the experiment on PC-3 was > 100 µM (inactive) each time. Besides, the GI50 in the experiment on SF-295, in the experiment with SR, with SW-620, in the experiment on T47D, with TK-10 and in the experiment with UACC-257 was > 100 µM (inactive) each time.

Turning to `CCOC(=O)NNC(=O)C1CSC(c2ccccc2)N1C(C)=O` (centres undefined), the GI50 is > 100 µM (inactive) with A549; > 100 µM (inactive) with CAKI-1; > 100 µM (inactive) in the experiment with CCRF-CEM; > 100 µM (inactive) in the experiment with DU-145; > 100 µM (inactive) with EKVX; 82.2 µM (inactive) in the experiment on HOP-92. Also, the GI50 in the experiment on HT-29, in the experiment with IGROV-1, in the experiment with MDA-MB-231, in the experiment with OVCAR-3, with OVCAR-4 and with PC-3 was > 100 µM (inactive) throughout. The GI50 in the experiment with RPMI-8226, in the experiment on SF-295, in the experiment on SW-620, in the experiment with T47D, with TK-10 and in the experiment on UACC-257 was > 100 µM (inactive) each time.

With `Cc1nc2c(=O)[nH]ncc2[nH]1`, the GI50 in the experiment on A549, with CAKI-1, in the experiment with CCRF-CEM, in the experiment with DU-145, in the experiment on EKVX and in the experiment on HT-29 was > 100 µM (inactive) throughout. Further, the GI50 in the experiment with IGROV-1, in the experiment on MDA-MB-231, in the experiment with OVCAR-3, in the experiment on PC-3, in the experiment on RPMI-8226 and with SF-295 was > 100 µM (inactive) each time. Besides, the GI50 in the experiment on SR, with SW-620, in the experiment on T47D, with TK-10 and with UACC-257 was > 100 µM (inactive) throughout.

On to `CC(NS(C)(=O)=O)c1ccccc1` (centres undefined), for which the GI50 in the experiment on A549, in the experiment on CAKI-1, with CCRF-CEM, with DU-145, in the experiment on HT-29 and in the experiment with IGROV-1 was > 100 µM (inactive) in each case. For the same compound, the GI50 in the experiment on MDA-MB-231, in the experiment on OVCAR-3, in the experiment on OVCAR-4, in the experiment with PC-3, in the experiment on RPMI-8226 and in the experiment with SF-295 was > 100 µM (inactive) throughout. In addition, the GI50 in the experiment with SR, with SW-620, with T47D, in the experiment with TK-10 and with UACC-257 was > 100 µM (inactive) in each case.

Regarding `COc1c(OC)c(OC)c(C(=O)/C=C/c2ccccc2)c(OC)c1OC`, the GI50 is 12.5 µM (inactive) with A549; 13.9 µM (inactive) in the experiment with CAKI-1; 1.96 µM (inactive) in the experiment with CCRF-CEM; 3.54 µM (inactive) with DU-145; 13.9 µM (inactive) in the experiment with EKVX; 3.13 µM (inactive) with HOP-92. For the same compound, the GI50 is 4.47 µM (inactive) in the experiment with HT-29; 11.3 µM (inactive) in the experiment with IGROV-1; 14.5 µM (inactive) in the experiment with MDA-MB-231; 9.29 µM (inactive) in the experiment with OVCAR-3; 5.97 µM (inactive) in the experiment with OVCAR-4; 8.67 µM (inactive) with PC-3. In addition, the GI50 in the experiment on RPMI-8226 is 3.6 µM (inactive); in the experiment with SF-295, 12.4 µM (inactive); with SW-620, 6.95 µM (inactive); in the experiment with T47D, 9.02 µM (inactive); in the experiment with TK-10, 12.8 µM (inactive); with UACC-257, 14.3 µM (inactive).

With `COc1ccc(OC2OC(COC(c3ccccc3)(c3ccc(OC)cc3)c3ccc(OC)cc3)C(O)C(O)C2O)cc1` (centres undefined), the GI50 in the experiment with A549 is 2.99 µM (inactive); in the experiment on CAKI-1, 4.75 µM (inactive); in the experiment on CCRF-CEM it was 2.08 µM (inactive); in the experiment with DU-145 it was 21.3 µM (inactive); in the experiment with EKVX it was 4.7 µM (inactive); with HT-29, 2.4 µM (inactive). For the same compound, the GI50 in the experiment with IGROV-1 is 5.93 µM (inactive); in the experiment on MDA-MB-231, 4.6 µM (inactive); with OVCAR-3 it was 4.21 µM (inactive); in the experiment on PC-3, 2.09 µM (inactive); in the experiment on RPMI-8226, 4.47 µM (inactive); in the experiment on SF-295, 4.28 µM (inactive). Moreover, the GI50 was 3.74 µM (inactive) with SR; 3.77 µM (inactive) with SW-620; 6.76 µM (inactive) in the experiment with T47D; 5.33 µM (inactive) in the experiment with TK-10; 6.64 µM (inactive) with UACC-257.

Regarding `COC(=O)C1CCC(=O)N1C(c1ccccc1)c1cc(OC)c(OC)c(OC)c1` (centres undefined), the GI50 was 54.2 µM (inactive) in the experiment with A549; 22.3 µM (inactive) in the experiment with CAKI-1; 53.3 µM (inactive) with CCRF-CEM; > 100 µM (inactive) in the experiment with DU-145; 91 µM (inactive) in the experiment with EKVX; 99.3 µM (inactive) with HOP-92. In addition, the GI50 was 29.4 µM (inactive) with HT-29; 63.5 µM (inactive) in the experiment on IGROV-1; 41.3 µM (inactive) with MDA-MB-231; 51.2 µM (inactive) in the experiment on OVCAR-3; 49.7 µM (inactive) in the experiment with OVCAR-4; 51.3 µM (inactive) in the experiment on PC-3. The GI50 is 38.9 µM (inactive) in the experiment on SF-295; 50.9 µM (inactive) in the experiment on SR; 46.7 µM (inactive) in the experiment on SW-620; 55.8 µM (inactive) in the experiment on T47D; > 100 µM (inactive) with TK-10; > 100 µM (inactive) in the experiment with UACC-257.
